Test results as given in patent US9204653B2, “5-fluoro pyrimidine derivatives” (DOW AGROSCIENCES LLC, priority 2008, dated 2015).
Read-outs that look alike come from different tables or passages of the source.

Legend:
[1] = tested on: Cercospora beticola; Bayer Code CERCBE; test: Leaf spot of sugar beets; type: in vivo, Cercospora beticola on sugar beets (variety HH-88); settings: 24 h, % disease control rating, one day protectant; for pest or weed control at 25 ppm: read-out: CERCBE 1 DP 25 ppm; for pest or weed control at 75 ppm: read-out: CERCBE 1 DP 75 ppm
[2] = tested on: Mycosphaerella graminicola; Anamorph: Septoria tritici; Bayer Code SEPTTR; test: Leaf blotch of wheat, foliar fungicide treatment, one day protectant (1DP) or three day curative (3DC); type: in vivo, Septoria tritici on wheat plants (variety Yuma); settings: Zymoseptoria tritici
[3] = tested on: Venturia inaequalis; Bayer Code VENTIN; test: Apple scab; type: in vivo; settings: 24 h, % disease control rating, one day protectant; for pest or weed control at 25 ppm: read-out: VENTIN 1 DP 25 ppm; for pest or weed control at 75 ppm: read-out: VENTIN 1 DP 75 ppm
[4] = 24 h, one day protectant (1DP), percent disease control rating, read-out: SETTTR 1DP 25 ppm
[5] = 24 h, one day protectant (1DP), percent disease control rating, read-out: SEPTTR 1DP 100 ppm
[6] = 72 h, three day curative (3DC), percent disease control rating, read-out: SEPTTR 3DC 25 ppm
[7] = 72 h, three day curative (3DC), percent disease control rating, read-out: SEPTTR 3DC 100 ppm
[8] = 24 h, one day protectant, rating of percent disease control, read-out: SETTTR 1DP 25 ppm
[9] = 24 h, one day protectant, rating of percent disease control, read-out: SEPTTR 1DP 100 ppm
[10] = 72 h, three day curative, rating of percent disease control, read-out: SEPTTR 3DC 25 ppm
[11] = 72 h, three day curative, rating of percent disease control, read-out: SEPTTR 3DC 100 ppm
[12] = 24 h, one day protectant (1DP), rating of percent disease control, read-out: SETTTR 1DP 25 ppm
[13] = 24 h, one day protectant (1DP), rating of percent disease control, read-out: SEPTTR 1DP 100 ppm
[14] = 72 h, three day curative (3DC), rating of percent disease control, read-out: SEPTTR 3DC 25 ppm
[15] = 72 h, three day curative (3DC), rating of percent disease control, read-out: SEPTTR 3DC 100 ppm

Compound | pest or weed control at 25 ppm [1] [%] | pest or weed control at 75 ppm [1] [%] | pest or weed control at 25 ppm [2, 4] [%] | pest or weed control at 100 ppm [2, 5] [%] | pest or weed control at 25 ppm [2, 6] [%] | pest or weed control at 100 ppm [2, 7] [%] | pest or weed control at 25 ppm [3] [%] | pest or weed control at 75 ppm [3] [%] | pest or weed control at 25 ppm [2, 8] [%] | pest or weed control at 100 ppm [2, 9] [%] | pest or weed control at 25 ppm [2, 10] [%] | pest or weed control at 100 ppm [2, 11] [%] | pest or weed control at 25 ppm [2, 12] [%] | pest or weed control at 100 ppm [2, 13] [%] | pest or weed control at 25 ppm [2, 14] [%] | pest or weed control at 100 ppm [2, 15] [%] | pest or weed control at 50 ppm ([2]; 24 h, % disease control rating, one day protectant, 50 ppm) [%] | pest or weed control at 200 ppm ([2]; 24 h, % disease control rating, one day protectant, 200 ppm) [%]
CCCCCCOc1ncc(F)c(/N=C/N(C)C)n1 [Compound 68] | 51 to 75 | 51 to 75 | 0 to 25 | 51 to 75 | 0 to 25 | 51 to 75 | 51 to 75 | 76 to 100 | – | – | – | – | – | – | – | – | – | –
Fc1cnc(OCc2ccccc2)nc1/N=C/N1CCOCC1 [Compound 626] | 0 to 25 | 0 to 25 | – | – | – | – | 26 to 50 | 76 to 100 | 76 to 100 | 76 to 100 | 76 to 100 | 76 to 100 | – | – | – | – | – | –
CN(C)/C=N/c1nc(OCc2cccc(C#N)c2)ncc1F [Compound 418] | 0 to 25 | 0 to 25 | – | – | – | – | 51 to 75 | 51 to 75 | – | – | – | – | 76 to 100 | 76 to 100 | 76 to 100 | 76 to 100 | – | –
Nc1nc(OCc2cc3ccccc3o2)ncc1F [Compound 554] | 0 to 25 | 51 to 75 | – | – | – | – | 76 to 100 | 76 to 100 | 26 to 50 | 76 to 100 | 26 to 50 | 76 to 100 | – | – | – | – | – | –
CN(Cc1ccccc1F)c1nc(OCc2ccc(F)cc2)ncc1F [Compound 164] | 0 to 25 | 0 to 25 | 26 to 50 | 51 to 75 | 0 to 25 | 51 to 75 | 26 to 50 | 51 to 75 | – | – | – | – | – | – | – | – | – | –
CCn1nccc1Oc1ncc(F)c(N)n1 [Compound 584] | 26 to 50 | 26 to 50 | – | – | – | – | 26 to 50 | 26 to 50 | 0 to 25 | 76 to 100 | 0 to 25 | 76 to 100 | – | – | – | – | – | –
COc1ncc(Oc2ncc(F)c(N)n2)cn1 [Compound 488] | 0 to 25 | 0 to 25 | – | – | – | – | 26 to 50 | 26 to 50 | – | – | – | – | 0 to 25 | 0 to 25 | 0 to 25 | 0 to 25 | – | –
Fc1cnc(OC2CCCCC2)nc1NCc1ccc(Cl)nc1 [Compound 858] | 26 to 50 | 26 to 50 | – | – | – | – | 26 to 50 | 0 to 25 | – | – | – | – | – | – | – | – | 0 to 25 | 26 to 50
CO/N=C\Nc1nc(OCc2ccc(F)cc2)ncc1F [Compound 739] | 0 to 25 | 0 to 25 | – | – | – | – | 26 to 50 | 51 to 75 | – | – | – | – | 76 to 100 | 76 to 100 | 76 to 100 | 76 to 100 | – | –
COc1ccc(COc2ncc(F)c(/N=C3\CCCCN3C)n2)cc1F [Compound 732] | 26 to 50 | 76 to 100 | – | – | – | – | 26 to 50 | 76 to 100 | 76 to 100 | 76 to 100 | 51 to 75 | 76 to 100 | – | – | – | – | – | –
COc1ccc(Oc2ncc(F)c(NC(C)=O)n2)cc1 [Compound 649] | 0 to 25 | 0 to 25 | – | – | – | – | 26 to 50 | 26 to 50 | 0 to 25 | 26 to 50 | 0 to 25 | 76 to 100 | – | – | – | – | – | –
COc1cccc(COc2ncc(F)c(NCO)n2)c1 [Compound 741] | 0 to 25 | 0 to 25 | – | – | – | – | 51 to 75 | 76 to 100 | – | – | – | – | 26 to 50 | 76 to 100 | 76 to 100 | 76 to 100 | – | –
